Source: patent US8188075B2, “Triazole compounds that modulate HSP90 activity” (Synta Pharmaceuticals Corp., priority 2006, dated 2012)

Key:
HUVEC = HUVEC killing (separate reference experiment); type: cell-based; settings: Homo sapiens
[1] = system: human umbilical vein endothelial cell (HUVEC); test: in vitro HUVEC migration assay (time-lapse imaging of scraped confluent cultures); type: cell-based
Protocol: To examine if the compounds of the invention affect endothelial cell function, an in vitro human umbilical vein endothelial cell (HUVEC) migration assay was performed in the presence of Compound 226. HUVEC cells (ATCC, VA) (passage number 4) were cultured in EGM2 medium (Cambrex, Mass.) on 12-well plates and performed time-lapse imaging with the live cell imaging system on an inverted microscope supplied with 6-7% CO2. The temperature was kept at 37° C. Images were taken every 30 minutes using the 2× objective for up to 106 hr (results in FIGS. 1, 2 and 3), or, every 60 seconds using the 20× objective for 30 min (for FIG. 4). Confluent HUVEC cultures were scraped similarly to make a blank area, followed by culturing in HUVEC medium for 15 hr without treatment. The migration areas, which were imaged as time-lapse sequences for each well, were used as a basis to standardize/correct migration rates. Then, migration of cells under different treatments was imaged at the same time to generate time-lapse image sequences for each well. Time-lapse movies were further analyzed by measuring areas that were covered by migrating cells. […] The red lines indicate the front lines of migrating cells. DMSO (1:100) treated cells migrated rapidly and covered the entire blank (wounded) area at 106 hr. […] During experiments, HUVEC cells were activated by the presence of VEGF (Cambrex, Mass.) and basic FGF (Cambrex, Mass.).
In addition to the analysis of HUVEC cell migration, HUVEC behavior was also tracked during above treatments.

[2] = system: VE-cadherin junctions between HUVEC cells; test: immunofluorescence study of VE-cadherin junctions between HUVEC cells; type: cell-based, human; settings: 24 hrs
Protocol: An immunofluorescence study was performed by using anti-VE-cadherin antibodies (1:1 mixed, obtained from Amersham Biosciences, NJ, and Santa Cruz Biotechnology, CA) to examine VE-cadherin junctions between HUVEC cells. HUVEC cells were treated with DMSO or Compound 226 (10, 100 and 1000 nM) for 24 hrs and fixed for immunostaining. DMSO concentration was 1:100 for all treatments. To boost the immunofluorescence signal, cells were stained with a mixture of 2 polyclonal anti-human VE-cadherin Abs followed by staining with a mixture of fluorescent secondary antibodies. […] Non-DMSO treated cells gave a similar result to those with DMSO treatment (data not shown). […] This effect could result in limited motility of the cells and reducing permeability of the endothelium, thus contributing to the cell migration inhibition and the potential anti-angiogenesis effect of Compound 226.

CC(C)c1cc(-c2nnc(O)n2-c2ccc3c(ccn3C)c2)c(O)cc1O [Compound 226, 3-(2,4-dihydroxy-5-isopropyl-phenyl)-4-(1-methyl-indol-5-yl)-5-hydroxy-[1,2,4] triazole]
IC50 (HUVEC): ~800 nM
migration of HUVEC cells to the blank area ([1]; 100 nM and 1 μM, up to 106 hr, compared to DMSO, cells activated by VEGF and basic FGF): completely blocked migration
HUVEC cell-cell contact lines (morphology) ([1]; 100 nM, 2× and 20× magnification (FIG. 4)): Cell-cell contact lines disappeared
movement of HUVEC cells in time-lapse videos (20× objective) ([1]; 100 nM, versus DMSO treated cells): significantly reduced movement
IC50 ([1]; Homo sapiens, HUVEC, estimated from similar covered areas at 100 nM and 1 μM (FIG. 2), read-out: IC50 of the inhibition of HUVEC migration): < 100 nM
HUVEC cell shrinkage ([1]; after 24 hr treatment with 100 nM and 1 μM): began to shrink
cell death of HUVEC during migration assay ([1]; at 24 hr (FIG. 3)): no significant cell death
HUVEC cell survival ([1]; at 48 hr, 1 μM): majority of cells were alive
VE-cadherin staining in cell-cell junction regions ([2]; 10 nM, compared to DMSO): extremely strong
VE-cadherin staining areas ([2]; 100 nM): further increase the VE-cadherin staining areas
VE-cadherin molecules distribution ([2]; 1 μM): Aggregations of VE-cadherin molecules appeared
